Common to all, as to experiment: NCI 60 cell line screen
Format in all cases: cell-based

In one assay the test system is A498. The following applies: Homo sapiens; A498, Renal Cancer; read-out: Percent growth. As to the method:
(§1) Anticancer profiling over a panel of 60 cancer cell lines was carried out at the National Cancer Institute (NCI), Bethesda, Maryland, USA, https://dtp.cancer.gov/discovery_development/nci-60/methodology.htm (Last visit 22 September 2021), using the standard procedure (detailed procedure is located in the Supplementary Information page 50 s).
(§2) NCI standard procedure for 60 cell lines assay
(§3) The human tumor cell lines of the cancer screening panel are grown in RPMI 1640 mediu m containing 5% fetal bovine serum and 2 mM L-glutamine. For a typical screening experiment, cells are inoculated into 96 well microtiter plates in 100 μL at plating densities ranging from 5,000 to 40,000 cells/well depending on the doubling time of individual cell lines. After cell inoculation, the microtiter plates are incubated at 37° C, 5 % CO2, 95 % air and 100 % relative humidity for 24 h prior to addition of experimental drugs.
(§4) After 24 h, two plates of each cell line are fixed in situ with TCA, to represent a measurement of the cell population for each cell line at the time of drug addition (Tz). Experimental drugs are solubilized in dimethyl sulfoxide at 400-fold the desired final maximum test concentration (10 µM) and stored frozen prior to use. At the time of drug addition, an aliquot of frozen concentrate is thawed and diluted to twice the desired final maximum test concentration with co mp lete medium containing 50 μg/ml gentamicin. Additional four, 10-fold or ½ log serial dilutions are made to provide a total of five drug concentrations plus control. Aliquots of 100 μl of these different drug dilutions are added to the appropriate microtiter wells already containing 100 μl of medium, resulting in the required final drug concentrations.
(§5) Following drug addition, the plates are incubated for an additional 48 h at 37°C, 5 % CO2, 95 % air, and 100 % relative humidity. For adherent cells, the assay is terminated by the addition of cold TCA. Cells are fixed in situ by the gentle addition of 50 μl of cold 50 % (w/v) TCA (final concentration, 10 % TCA) and incubated for 60 minutes at 4°C. The supernatant is discarded, and the plates are washed five times with tap water and air dried. Sulforhodamine B (SRB) solution (100 μl) at 0.4 % (w/v) in 1 % acetic acid is added to each well, and plates are incubated for 10 minutes at room temperature. After staining, unbound dye is removed by washing five times with 1 % acetic acid and the plates are air dried. Bound stain is subsequently solubilized with 10 mM trizma base, and the absorbance is read on an automated plate reader at a wavelength of 515 nm. For suspension cells, the methodology is the same except that the assay is terminated by fixing settled cells at the bottom of the wells by g ently adding 50 μl of 80 % TCA (final concentration, 16 % TCA). Using the seven absorbance measurements [time zero, (Tz), control growth, (C), and test growth in the presence of drug at the five concentration levels (Ti)], the percentage growth is calculated at each of the drug concentrations levels. Percentage growth inhibition is calculated as:
(§6) [(Ti-Tz)/(C-Tz)] x 100 for concentrations for which Ti>/=Tz
(§7) [(Ti-Tz)/Tz] x 100 for concentrations for which Ti<Tz.
(§8) Three dose response parameters are calculated for each experimental agent. Growth inhibition of […]
(§9) resulting in a 50% reduction in the net protein increase (as measured by SRB staining) in control cells during the drug incubation. The drug concentration resulting in total growth inhibition […]
(§10) (TGI) is calculated from Ti = Tz.

The subject of a further assay is A549/ATCC. The following applies: Homo sapiens, Non-Small Cell Lung Cancer, read-out: Percent growth. As for the experimental part: as §1, §2, §3, §4, §5, §6, §7, §8, §9, §10
A further assay concerns BT-549. The following applies: Homo sapiens; BT-549, Breast Cancer; read-out: Percent growth. As to the method:
as §1, §2, §3, §4, §5, §6, §7, §8, §9, §10

In a further assay the test system is CCRF-CEM. Particulars: Homo sapiens, Leukemia, read-out: Percent growth. As to the method: as §1, §2, §3, §4, §5, §6, §7, §8, §9, §10
For another assay, the system named is COLO 205. Particulars: Homo sapiens; COLO 205, Colon Cancer; read-out: Percent growth. As to the method: as §1, §2, §3, §4, §5, §6, §7, §8, §9, §10
The subject of another assay is DU-145. The following applies: Homo sapiens; DU-145, Prostate Cancer; read-out: Percent growth. As to the method: as §1, §2, §3, §4, §5, §6, §7, §8, §9, §10
The test system of another assay is HCC-2998. The following applies: Homo sapiens; HCC-2998, Colon Cancer; read-out: Percent growth. As to the method:
as §1, §2, §3, §4, §5, §6, §7, §8, §9, §10

The next assay has as its system HCT-116. The following applies: Homo sapiens; HCT-116, Colon Cancer; read-out: Percent growth. As for the experimental part: as §1, §2, §3, §4, §5, §6, §7, §8, §9, §10
The test system of another assay is HL-60(TB). Particulars: Homo sapiens, Leukemia, read-out: Percent growth. As to the method: as §1, §2, §3, §4, §5, §6, §7, §8, §9, §10
A further assay deals with IGROV1. Particulars: Homo sapiens, IGROV-1; IGROV1, Ovarian Cancer; read-out: Percent growth. As for the experimental part:
as §1, §2, §3, §4, §5, §6, §7, §8, §9, §10

For a further assay, the system named is LOX IMVI. The following applies: Homo sapiens, Melanoma, read-out: Percent growth. As to the method: as §1, §2, §3, §4, §5, §6, §7, §8, §9, §10
In the next assay the test system is MALME-3M. The following applies: Homo sapiens, Melanoma, read-out: Percent growth. As for the experimental part: as §1, §2, §3, §4, §5, §6, §7, §8, §9, §10
A further assay deals with MCF7. The following applies: Homo sapiens; MCF7, Breast Cancer; read-out: Percent growth. As to the method:
as §1, §2, §3, §4, §5, §6, §7, §8, §9, §10

A further assay deals with MDA-MB-231/ATCC. The following applies: Homo sapiens, Breast Cancer, read-out: Percent growth. As to the method:
as §1, §2, §3, §4, §5, §6, §7, §8, §9, §10

Another assay deals with MDA-MB-435. The following applies: Homo sapiens; MDA-MB-435, Melanoma; read-out: Percent growth. As for the experimental part: as §1, §2, §3, §4, §5, §6, §7, §8, §9, §10
A further assay has as its system NCI-H322M. Particulars: Homo sapiens, Non-Small Cell Lung Cancer, read-out: Percent growth. As for the experimental part: as §1, §2, §3, §4, §5, §6, §7, §8, §9, §10
In the next assay the test system is OVCAR-3. Particulars: Homo sapiens; OVCAR-3, Ovarian Cancer; read-out: Percent growth. As to the method: as §1, §2, §3, §4, §5, §6, §7, §8, §9, §10
For a further assay, the system named is OVCAR-5. The following applies: Homo sapiens; OVCAR-5, Ovarian Cancer; read-out: Percent growth. As for the experimental part: as §1, §2, §3, §4, §5, §6, §7, §8, §9, §10
Another assay relates to OVCAR-8. Particulars: Homo sapiens; OVCAR-8, Ovarian Cancer; read-out: Percent growth. As for the experimental part: as §1, §2, §3, §4, §5, §6, §7, §8, §9, §10
The next assay deals with SF-268. Particulars: Homo sapiens; SF-268, CNS-Cancer; read-out: Percent growth. As for the experimental part: as §1, §2, §3, §4, §5, §6, §7, §8, §9, §10
In the next assay the test system is SF-539. The following applies: Homo sapiens; SF-539, CNS-Cancer; read-out: Percent growth. As for the experimental part: as §1, §2, §3, §4, §5, §6, §7, §8, §9, §10
In the next assay the test system is SK-OV-3. Particulars: Homo sapiens; SK-OV-3, Ovarian Cancer; read-out: Percent growth. As to the method:
as §1, §2, §3, §4, §5, §6, §7, §8, §9, §10

Another assay concerns SN12C. Particulars: Homo sapiens, Renal Cancer, read-out: Percent growth. As for the experimental part:
as §1, §2, §3, §4, §5, §6, §7, §8, §9, §10

`O=S(=O)(NCCNc1nccc(-n2cnc3ccccc32)n1)c1ccc(Cl)cc1` [12c, N-(2-((4-(1H-benzo [d]imidazol-1-yl)pyrimidin-2-yl)amino)ethyl)-4-chlorobenzenesulfonamide]: the activity at 10 µM was found to be 84.8% with A498; 103% in the assay on A549/ATCC; 99.3% with BT-549; 103% in the assay on CCRF-CEM; 104% in the assay with COLO 205; 104% in the assay on DU-145. For the same compound, the activity at 10 µM in the assay on HCC-2998 is 101%; in the assay on HCT-116 it was 94.6%; in the assay with HL-60(TB) it was 113%; in the assay with IGROV1, 98.2%; with LOX IMVI, 93.5%; in the assay with MALME-3M, 99.5%. For the same compound, the activity at 10 µM in the assay on MCF7 was found to be 87.9%; in the assay on MDA-MB-231/ATCC, 90.5%; in the assay on MDA-MB-435, 100%; in the assay with NCI-H322M it was 95.3%; in the assay on OVCAR-3, 106%; with OVCAR-5, 91.7%. Also, the activity at 10 µM with OVCAR-8 was 102%; with SF-268, 92.3%; in the assay with SF-539, 91.2%; in the assay with SK-OV-3, 112%; with SN12C, 96.6%.
For the compound `O=S(=O)(NCCCNc1nccc(-n2cnc3ccccc32)n1)c1ccc(F)cc1` [12i, N-(3-((4-(1H-benzo [d]imidazol-1-yl)pyrimidin-2-yl)amino)propyl)-4-fluorobenzenesulfonamide], the activity at 10 µM in the assay on A498 was determined as 70.5%; in the assay on A549/ATCC it was 88.8%; in the assay on BT-549, 34.9%; with CCRF-CEM, 49%; in the assay on COLO 205 it was 86%; with DU-145 it was 87.2%. The activity at 10 µM came out at 102% with HCC-2998; 58.7% in the assay on HCT-116; 90.9% in the assay with HL-60(TB); 91.8% in the assay with IGROV1; 74% in the assay on LOX IMVI; 86.1% with MALME-3M. Moreover, the activity at 10 µM is 63.7% in the assay with MCF7; 74.4% in the assay on MDA-MB-231/ATCC; 64.6% with MDA-MB-435; 99.5% in the assay with NCI-H322M; 86.7% with OVCAR-3; 98.6% in the assay on OVCAR-5. In addition, the activity at 10 µM worked out at 62.5% in the assay on OVCAR-8; 86.3% in the assay with SF-268; 86.2% with SF-539; 85.2% in the assay with SK-OV-3; 89% in the assay with SN12C.
For the compound `O=S(=O)(NCCNc1nccc(-n2cnc3ccccc32)n1)c1ccc(Br)cc1` [12d, N-(2-((4-(1H-benzo [d]imidazol-1-yl)pyrimidin-2-yl)amino)ethyl)-4-bromobenzenesulfonamide], the activity at 10 µM is 76.3% with A498; 100% with A549/ATCC; 115% in the assay on BT-549; 101% in the assay on CCRF-CEM; 107% with COLO 205; 99.9% in the assay with DU-145. In addition, the activity at 10 µM in the assay with HCC-2998 was 103%; in the assay with HCT-116 it was 99.8%; with HL-60(TB), 114%; with IGROV1 it was 90.7%; in the assay on LOX IMVI it was 99.1%; in the assay on MALME-3M, 103%. The activity at 10 µM is 78.4% in the assay on MCF7; 88.2% with MDA-MB-231/ATCC; 108% with MDA-MB-435; 107% in the assay with NCI-H322M; 103% in the assay with OVCAR-3; 94% with OVCAR-5. For the same compound, the activity at 10 µM in the assay on OVCAR-8 came out at 95.6%; in the assay on SF-268 it was 91.2%; in the assay with SF-539, 96.2%; in the assay with SK-OV-3, 99.9%; in the assay with SN12C, 91.5%.
Regarding `O=S(=O)(NCCNc1nccc(-n2cnc3ccccc32)n1)c1ccc(F)cc1` [12b, N-(2-((4-(1H-benzo [d]imidazol-1-yl)pyrimidin-2-yl)amino)ethyl)-4-fluorobenzenesulfonamide], the activity at 10 µM came out at 80.7% in the assay on A498; 91.3% with A549/ATCC; 82.2% in the assay with BT-549; 93.5% with CCRF-CEM; 102% with COLO 205; 91.5% in the assay with DU-145. In addition, the activity at 10 µM in the assay on HCC-2998 was 104%; with HCT-116, 83.6%; in the assay with HL-60(TB), 106%; with IGROV1, 89.3%; in the assay on LOX IMVI it was 93.2%; in the assay on MALME-3M, 93.7%. Also, the activity at 10 µM was 87.7% in the assay on MCF7; 81.8% in the assay on MDA-MB-231/ATCC; 97.7% in the assay with MDA-MB-435; 95.6% in the assay on NCI-H322M; 106% with OVCAR-3; 86.6% in the assay with OVCAR-5. For the same compound, the activity at 10 µM in the assay on OVCAR-8 is 89%; in the assay on SF-268, 88.2%; in the assay on SF-539, 83.7%; in the assay on SK-OV-3, 102%; with SN12C, 89.7%.

The record behind these values is article PMC8508980, “Design, Synthesis and Anticancer Profile of New 4-(1H-benzo[d]imidazol-1-yl)pyrimidin-2-amine-Linked Sulfonamide Derivatives with V600EBRAF Inhibitory Effect” (International Journal of Molecular Sciences, 2021).
